Values of other authors in patent publication US20130338178A1, “SIRTUIN MODULATORS AS INHIBITORS OF CYTOMEGALOVIRUS” (THE TRUSTEES OF PRINCETON UNIVERSITY, priority 2011, published 2013).

Legend:
sirtuin = settings: cited from earlier work; for IC50: analogs of compound 12; for % Activity at 50 μM / % Activity at 500 μM: residual enzyme activity relative to control with no inhibitor
SIRT1 = target: T1, SIRT1 (Homo sapiens, UniProt Q96EB6); settings: SIRT1 preincubated with NAD+ and compound, means ± SD, cited from earlier work
T1 sequence (Q96EB6 1-747): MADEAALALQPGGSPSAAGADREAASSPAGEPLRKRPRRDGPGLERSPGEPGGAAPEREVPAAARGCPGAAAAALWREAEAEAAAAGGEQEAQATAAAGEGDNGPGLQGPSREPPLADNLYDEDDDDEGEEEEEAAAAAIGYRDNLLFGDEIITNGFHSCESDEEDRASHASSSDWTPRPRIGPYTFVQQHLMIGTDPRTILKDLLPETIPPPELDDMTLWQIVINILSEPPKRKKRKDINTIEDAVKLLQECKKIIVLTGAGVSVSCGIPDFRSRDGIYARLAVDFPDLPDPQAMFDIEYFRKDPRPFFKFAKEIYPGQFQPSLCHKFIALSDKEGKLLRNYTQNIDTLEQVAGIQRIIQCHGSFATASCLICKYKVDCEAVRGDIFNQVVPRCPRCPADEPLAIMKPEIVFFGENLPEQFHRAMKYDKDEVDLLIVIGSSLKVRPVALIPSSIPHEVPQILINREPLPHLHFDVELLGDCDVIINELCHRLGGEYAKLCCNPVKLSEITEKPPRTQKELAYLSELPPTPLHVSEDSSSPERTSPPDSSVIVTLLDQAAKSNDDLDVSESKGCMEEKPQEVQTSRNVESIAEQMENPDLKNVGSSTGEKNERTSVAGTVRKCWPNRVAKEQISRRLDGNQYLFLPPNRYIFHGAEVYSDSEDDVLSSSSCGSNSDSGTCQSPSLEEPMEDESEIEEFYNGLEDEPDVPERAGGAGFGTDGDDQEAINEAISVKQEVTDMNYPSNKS

SIRT2 = target: T2, SIRT2 (Homo sapiens, UniProt Q8IXJ6); settings: cited from earlier work
T2 sequence (Q8IXJ6 1-389): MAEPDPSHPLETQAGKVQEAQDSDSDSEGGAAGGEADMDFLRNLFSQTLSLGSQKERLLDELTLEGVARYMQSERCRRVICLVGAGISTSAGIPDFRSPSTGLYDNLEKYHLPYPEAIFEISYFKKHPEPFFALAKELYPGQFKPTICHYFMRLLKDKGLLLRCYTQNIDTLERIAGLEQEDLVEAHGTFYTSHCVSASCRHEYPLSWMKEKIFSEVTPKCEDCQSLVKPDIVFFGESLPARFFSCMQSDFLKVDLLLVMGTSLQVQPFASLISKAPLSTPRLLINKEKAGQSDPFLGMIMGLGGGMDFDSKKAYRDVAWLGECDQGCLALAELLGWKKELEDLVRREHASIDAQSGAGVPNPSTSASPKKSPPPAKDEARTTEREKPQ

O=C(O)CCN1C(=O)c2cc(Cl)c(Cl)cc2C1=O [compound 39008]
IC50 (sirtuin): No inhibition

C#CC1c2cc(O)c(OC)cc2CCN1C (stereo not drawn) [7-52]
% Activity at 50 μM (sirtuin): 100% | % Activity at 500 μM (sirtuin): 86%

O=C(CC(=O)C(F)(F)F)NCCCC[C@H](NC(=O)OCc1ccccc1)C(=O)Nc1ccccc1 [2y]
inhibition at 300 μM (%) (SIRT1): 7.9 ± 0.92% | IC50 (SIRT1): > 300 µM

Cc1ccc(OCCCC(=O)Oc2ccc3c(C)cc(=O)oc3c2)cc1 [compound 6836332]
% Activity at 50 μM (sirtuin): 99% | % Activity at 500 μM (sirtuin): 57%

C[S+]([O-])CC(=O)NCCCC[C@H](NC(=O)OCc1ccccc1)C(=O)Nc1ccccc1 (stereo partly drawn) [2d]
inhibition at 300 μM (%) (SIRT1): 46 ± 3.0% | IC50 (SIRT1): > 300 µM

O=C(Cc1ccccc1[N+](=O)[O-])NCCCC[C@H](NC(=O)OCc1ccccc1)C(=O)Nc1ccccc1 [2h]
inhibition at 300 μM (%) (SIRT1): 40 ± 12% | IC50 (SIRT1): > 300 µM

Cc1cc(=O)oc2cc(OC(=O)COc3ccccc3)ccc12 [compound 5237467]
% Activity at 50 μM (sirtuin): 91% | % Activity at 500 μM (sirtuin): 45%

CSCC(=O)NCCCC[C@H](NC(=O)OCc1ccccc1)C(=O)Nc1ccccc1 [2c]
inhibition at 300 μM (%) (SIRT1): 32 ± 20% | IC50 (SIRT1): > 300 µM

CC12Cc3cnc(-c4ccccc4)nc3CC1CCC1C2CCC2(C)C1CCC2(C)O (stereo not drawn) [CSC13]
Sirt2 effect (SIRT2): inhibition

Cc1cccc(OCC(=O)Oc2ccc3c(C)cc(=O)oc3c2)c1 [compound 5140108]
% Activity at 50 μM (sirtuin): 90% | % Activity at 500 μM (sirtuin): 13%

CCCOC(=O)CC(=O)NCCCC[C@H](NC(=O)OCc1ccccc1)C(=O)Nc1ccccc1 [2l]
inhibition at 300 μM (%) (SIRT1): 71 ± 0.72% | IC50 (SIRT1): 62 ± 3.7 µM

NC(=O)CC(=O)NCCCC[C@H](NC(=O)OCc1ccccc1)C(=O)Nc1ccccc1 [2s]
inhibition at 300 μM (%) (SIRT1): 25 ± 2.3% | IC50 (SIRT1): > 300 µM

Cc1cc(Cc2cc(C)c(O)c(C)c2)cc(C)c1O [compound 97252]
% Activity at 50 μM (sirtuin): 89% | % Activity at 500 μM (sirtuin): 43%

COCC#CC1(C)c2cc(O)c(OC)cc2CCN1C (stereo not drawn) [7-123]
% Activity at 50 μM (sirtuin): 100% | % Activity at 500 μM (sirtuin): 100%

COCCCC1c2cc(O)c(OC)cc2CCN1C (stereo not drawn) [7-128]
% Activity at 50 μM (sirtuin): 99% | % Activity at 500 μM (sirtuin): 92%

COCC#CC1c2cc(O)c(OC)cc2CCN1Cc1ccc(OC)cc1 (stereo not drawn) [Compound 14b]
% Activity at 50 μM (sirtuin): 92% | % Activity at 500 μM (sirtuin): 2%

CC(C)(C)OC(=O)CC(=O)NCCCC[C@H](NC(=O)OCc1ccccc1)C(=O)Nc1ccccc1 [2o]
inhibition at 300 μM (%) (SIRT1): 6.0 ± 0.64% | IC50 (SIRT1): > 300 µM

O=C(O)CCN1C(=O)c2ccc(-c3nc4ccccc4c(=O)o3)cc2C1=O [compound 47054]
IC50 (sirtuin): No inhibition

C[S+]([O-])CCC(C(=O)O)N1C(=O)c2ccccc2C1=O (stereo not drawn) [compound 00032]
IC50 (sirtuin): No inhibition

O=C(O)CCCN1C(=O)c2ccccc2C1=O [compound 47032]
IC50 (sirtuin): No inhibition

Oc1ccc(Cc2ccccc2)cc1 [compound 72030]
% Activity at 50 μM (sirtuin): 100% | % Activity at 500 μM (sirtuin): 88%

O=C(CC(=O)c1ccccc1)NCCCC[C@H](NC(=O)OCc1ccccc1)C(=O)Nc1ccccc1 [2z]
inhibition at 300 μM (%) (SIRT1): 37 ± 7.4% | IC50 (SIRT1): > 300 µM

CC(C)OC(=O)CC(=O)NCCCC[C@H](NC(=O)OCc1ccccc1)C(=O)Nc1ccccc1 [2m]
inhibition at 300 μM (%) (SIRT1): 72 ± 5.1% | IC50 (SIRT1): 47 ± 5.3 µM

O=C(Cc1ccccc1C(F)(F)F)NCCCC[C@H](NC(=O)OCc1ccccc1)C(=O)Nc1ccccc1 [2f]
inhibition at 300 μM (%) (SIRT1): 49 ± 13% | IC50 (SIRT1): > 300 µM

O=C(CC(F)(F)F)NCCCC[C@H](NC(=O)OCc1ccccc1)C(=O)Nc1ccccc1 [2b]
inhibition at 300 μM (%) (SIRT1): 44 ± 17% | IC50 (SIRT1): > 300 µM

CCCC(=O)CC(=O)NCCCC[C@H](NC(=O)OCc1ccccc1)C(=O)Nc1ccccc1 [2x]
inhibition at 300 μM (%) (SIRT1): 78 ± 5.2%

Nc1ccc2c(c1)C(=O)N(CCC(=O)O)C2 [compound 42071]
IC50 (sirtuin): No inhibition

Nc1cccc(Cc2cccc(N)c2)c1 [compound 56413]
% Activity at 50 μM (sirtuin): 100% | % Activity at 500 μM (sirtuin): 100%

COc1cc2c(cc1O)CN(C)CC2 [7-133]
% Activity at 50 μM (sirtuin): 100% | % Activity at 500 μM (sirtuin): 98%
